Laboratory results as given in patent publication US8859569B2, “Substituted annellated pyrimidines and use thereof” (Bayer Pharma Aktiengesellschaft, priority 2011, dated 2014).

What was measured:
[1] = tested on: aorta rings; test: Vessel-relaxing action in vitro (aorta rings, phenylephrine contraction); settings: Oryctolagus cuniculus, concentration required to reduce phenylephrine-induced contraction of rabbit aorta rings by 50%
Description: B-1. Vessel-relaxing Action in vitro
Rabbits are stunned with a blow on the back of the neck and exsanguinated. The aorta is removed, freed from adhering tissue, separated into rings with a width of 1.5 mm, and placed individually, with preloading, in 5-ml organ baths with carbogen-gassed Krebs-Henseleit solution at 37° C. with the following composition (mM in each case): sodium chloride: 119; potassium chloride: 4.8; calcium chloride dihydrate: 1; magnesium sulphate heptahydrate: 1.4; potassium dihydrogen phosphate: 1.2; sodium hydrogen carbonate: 25; glucose: 10. The contraction force is recorded with Statham UC2 cells, amplified and digitized via an A/D converter (DAS-1802 HC, Keithley Instruments Munich) and recorded in parallel on a continuous-line recorder. To produce contraction, phenylephrine is added to the bath cumulatively in increasing concentration. After several control cycles, the test substance is added in increasing dosage in each subsequent pass and the level of contraction is compared with the level of contraction reached in the immediately preceding pass. This is used for calculating the concentration that is required to reduce the level of the control value by 50% (IC50 value). The standard application volume is 5 μl, and the proportion of DMSO in the bath solution corresponds to 0.1%.

[2] = target: T1, human phosphodiesterase 5 (PDE-5) (Homo sapiens, UniProt O76074); test: Inhibition of human phosphodiesterase 5 (PDE-5), SPA assay; format: biochemical; settings: PDE-5 preparation from human platelets, [8-3H]cGMP substrate
T1 construct: PDE-5 preparations are obtained from human platelets by lysis; from tissue; host or cells: human platelets
Procedure, shortened: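 Scintillation proximity read-out with yttrium beads after 60 min room-temperature hydrolysis of 0.025 μCi [8-3H]cGMP, pH 7.5 Tris/MgCl2/EDTA buffer. Enzyme is a human platelet PDE-5 fraction, diluted to keep substrate turnover below 70%. Test concentrations 4 μM–0.0018 μM final; IC50 from inhibition curves.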

[3] = target: T2, recombinant guanylate cyclase reporter cell line (Rattus norvegicus, UniProt P19686+P20595); test: Action on recombinant guanylate cyclase reporter cell line; format: cell-based
T2 construct: expressed in transfected cells
T2 sequence (P20595 1-619): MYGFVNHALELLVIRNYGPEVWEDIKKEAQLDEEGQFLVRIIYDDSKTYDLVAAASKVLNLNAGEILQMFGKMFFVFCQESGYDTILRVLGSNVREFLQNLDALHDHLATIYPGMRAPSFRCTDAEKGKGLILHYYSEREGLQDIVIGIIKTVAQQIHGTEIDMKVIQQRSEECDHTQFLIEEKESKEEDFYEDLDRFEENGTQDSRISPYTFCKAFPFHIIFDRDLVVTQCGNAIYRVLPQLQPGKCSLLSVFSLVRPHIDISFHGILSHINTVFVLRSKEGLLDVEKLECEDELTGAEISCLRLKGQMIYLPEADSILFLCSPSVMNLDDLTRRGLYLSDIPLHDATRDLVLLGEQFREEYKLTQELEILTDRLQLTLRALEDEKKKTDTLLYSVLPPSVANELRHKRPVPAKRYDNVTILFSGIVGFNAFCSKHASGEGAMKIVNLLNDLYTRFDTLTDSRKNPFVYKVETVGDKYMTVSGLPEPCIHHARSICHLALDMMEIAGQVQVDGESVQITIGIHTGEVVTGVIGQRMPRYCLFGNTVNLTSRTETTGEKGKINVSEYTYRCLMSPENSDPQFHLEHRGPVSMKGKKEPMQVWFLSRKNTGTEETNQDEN
T2 sequence (P19686 1-690): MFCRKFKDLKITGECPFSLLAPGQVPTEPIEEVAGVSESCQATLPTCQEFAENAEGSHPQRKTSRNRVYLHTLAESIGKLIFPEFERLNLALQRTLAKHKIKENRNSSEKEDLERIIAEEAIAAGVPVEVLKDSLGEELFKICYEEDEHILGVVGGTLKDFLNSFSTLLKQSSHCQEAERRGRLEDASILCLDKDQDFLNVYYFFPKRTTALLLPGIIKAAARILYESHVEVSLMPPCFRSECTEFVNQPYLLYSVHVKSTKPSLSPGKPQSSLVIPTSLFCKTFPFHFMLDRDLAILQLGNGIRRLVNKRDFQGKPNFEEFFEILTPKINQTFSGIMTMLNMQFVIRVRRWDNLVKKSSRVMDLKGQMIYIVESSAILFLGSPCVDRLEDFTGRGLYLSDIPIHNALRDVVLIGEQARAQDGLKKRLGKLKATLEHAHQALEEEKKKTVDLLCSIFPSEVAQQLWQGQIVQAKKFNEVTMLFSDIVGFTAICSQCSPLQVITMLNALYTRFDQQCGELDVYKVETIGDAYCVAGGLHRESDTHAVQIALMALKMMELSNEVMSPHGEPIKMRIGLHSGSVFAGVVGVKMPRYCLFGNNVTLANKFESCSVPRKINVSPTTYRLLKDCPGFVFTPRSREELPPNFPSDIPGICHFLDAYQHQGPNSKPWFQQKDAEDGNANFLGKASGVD
Description: B-2. Action on Recombinant Guanylate Cyclase Reporter Cell Line
The cellular action of the compounds according to the invention is determined on a recombinant guanylate cyclase reporter cell line, as described in F. Wunder et al., Anal. Biochem. 339, 104-112 (2005).

SMILES | IC50 [1] | IC50 [2] | MEC (minimal effective concentration) [3]
CC1(C)C(=O)Nc2nc(-c3nn(Cc4ccccc4F)c4ncc(F)cc34)nc(NCC3CC3)c21 [Example 10, 4-[(Cyclopropylmethyl)amino]-2-[5-fluoro-1-(2-fluorobenzyl)-1H-pyrazolo[3,4-b]pyridin-3-yl]-5,5-dimethyl-5,7-dihydro-6H-pyrrolo[2,3-d]pyrimidin-6-one] | 552 nM | 52 nM | 0.3 μm
CC1(C)C(=O)Nc2nc(-c3nn(Cc4ccccc4F)c4ncc(F)cc34)nc(NCC(F)(F)F)c21 [Example 11, 2-[5-Fluoro-1-(2-fluorobenzyl)-1H-pyrazolo[3,4-b]pyridin-3-yl]-5,5-dimethyl-4-[(2,2,2-trifluoroethyl)amino]-5,7-dihydro-6H-pyrrolo[2,3-d]pyrimidin-6-one] | 663 nM | 48 nM | 0.3 μm
CC1(C)C(=O)Nc2nc(-c3nn(Cc4ncccc4F)c4ncc(F)cc34)nc(NCCC(F)(F)F)c21 [Example 12, 2-{5-Fluoro-1-[(3-fluoropyridin-2-yl)methyl]-1H-pyrazolo[3,4-b]pyridin-3-yl}-5,5-dimethyl-4-[(3,3,3-trifluoropropyl)amino]-5,7-dihydro-6H-pyrrolo[2,3-d]pyrimidin-6-one] | 631 nM | 50 nM | 0.1 μm
CC1(C)C(=O)Nc2nc(-c3nc(Cc4c(F)ccc(F)c4F)n4cc(Cl)ccc34)nc(NCCC(F)(F)F)c21 [Example 13, 2-[6-Chloro-3-(2,3,6-trifluorobenzyl)imidazo[1,5-a]pyridin-1-yl]-5,5-dimethyl-4-[(3,3,3-trifluoropropyl)amino]-5,7-dihydro-6H-pyrrolo[2,3-d]pyrimidin-6-one] | 4970 nM | 80 nM | 0.1 μm
CC1(C)C(=O)Nc2nc(-c3nn(Cc4ncccc4F)c4ncc(F)cc34)nc(N3CC(F)C3)c21 [Example 15, 4-(3-Fluoroazetidin-1-yl)-2-{5-fluoro-1-[(3-fluoropyridin-2-yl)methyl]-1H-pyrazolo[3,4-b]pyridin-3-yl}-5,5-dimethyl-5,7-dihydro-6H-pyrrolo[2,3-d]pyrimidin-6-one] | 453 nM | 430 nM | 1.0 μm
CC1(C)C(=O)Nc2nc(-c3nn(Cc4ncccc4F)c4ncc(F)cc34)nc(NCC(F)(F)F)c21 [Example 16, 2-{5-Fluoro-1-[(3-fluoropyridin-2-yl)methyl]-1H-pyrazolo[3,4-b]pyridin-3-yl}-5,5-dimethyl-4-[(2,2,2-trifluoroethyl)amino]-5,7-dihydro-6H-pyrrolo[2,3-d]pyrimidin-6-one] | 126 nM | 13 nM | 0.1 μm
CC1(C)C(=O)Nc2nc(-c3nn(Cc4ncccc4F)c4ncc(F)cc34)nc(NCC3CC3)c21 [Example 17, 4-[(Cyclopropylmethyl)amino]-2-{5-fluoro-1-[(3-fluoropyridin-2-yl)methyl]-1H-pyrazolo[3,4-b]pyridin-3-yl}-5,5-dimethyl-5,7-dihydro-6H-pyrrolo[2,3-d]pyrimidin-6-one] | 200 nM | 24 nM | 0.1 μm
CC1(C)C(=O)Nc2nc(-c3nn(Cc4ccccc4F)c4ncc(F)cc34)nc(NCCCC(F)(F)F)c21 [Example 18, 2-[5-Fluoro-1-(2-fluorobenzyl)-1H-pyrazolo[3,4-b]pyridin-3-yl]-5,5-dimethyl-4-[(4,4,4-trifluorobutyl)amino]-5,7-dihydro-6H-pyrrolo[2,3-d]pyrimidin-6-one] | 2720 nM | 120 nM | 0.03 μm
CC1(C)C(=O)Nc2nc(-c3nn(Cc4ccccc4F)c4c3CCC4)nc(NCC(F)(F)F)c21 [Example 19, 2-[1-(2-Fluorobenzyl)-1,4,5,6-tetrahydrocyclopenta[c]pyrazol-3-yl]-5,5-dimethyl-4-[(2,2,2-trifluoroethyl)amino]-5,7-dihydro-6H-pyrrolo[2,3-d]pyrimidin-6-one] | 1280 nM | 280 nM | 0.3 μm
CC1(C)C(=O)Nc2nc(-c3nn(Cc4ccccc4F)c4c3CCC4)nc(NCCC(F)(F)F)c21 [Example 20, 2-[1-(2-Fluorobenzyl)-1,4,5,6-tetrahydrocyclopenta[c]pyrazol-3-yl]-5,5-dimethyl-4-[(3,3,3-trifluoropropyl)amino]-5,7-dihydro-6H-pyrrolo[2,3-d]pyrimidin-6-one] | 1870 nM | 900 nM | 0.3 μm

Next, values leading:

IC50 [1] | IC50 [2] | MEC (minimal effective concentration) [3] | SMILES
100 nM | 400 nM | 0.03 μm | CCN1CCN(c2nc(-c3nn(Cc4ccccc4F)c4ncccc34)nc3c2C(C)(C)C(=O)N3)C1=O [Example 21, 4-(3-Ethyl-2-oxoimidazolidin-1-yl)-2-[1-(2-fluorobenzyl)-1H-pyrazolo[3,4-b]pyridin-3-yl]-5,5-dimethyl-5,7-dihydro-6H-pyrrolo[2,3-d]pyrimidin-6-one]
530 nM | 580 nM | 0.03 μm | CC1(C)C(=O)Nc2nc(-n3nc(Cc4ccccc4F)c4ccccc43)nc(O)c21 [Example 22, 2-[3-(2-Fluorobenzyl)-1H-indazol-1-yl]-4-hydroxy-5,5-dimethyl-5,7-dihydro-6H-pyrrolo[2,3-d]pyrimidin-6-one]
2860 nM | 1600 nM | 0.1 μm | Cc1cc(C)n(-c2nc(-c3nn(Cc4ccccc4F)c4ncccc34)nc3c2C(C)(C)C(=O)N3)n1 [Example 23, 4-(3,5-Dimethyl-1H-pyrazol-1-yl)-2-[1-(2-fluorobenzyl)-1H-pyrazolo[3,4-b]pyridin-3-yl]-5,5-dimethyl-5,7-dihydro-6H-pyrrolo[2,3-d]pyrimidin-6-one]
573 nM | 100 nM | 0.1 μm | CC1(C)C(=O)Nc2nc(-c3nn(Cc4ccccc4F)c4ncccc34)nc(-n3cccc(F)c3=O)c21 [Example 24, 2-[1-(2-Fluorobenzyl)-1H-pyrazolo[3,4-b]pyridin-3-yl]-4-(3-fluoro-2-oxopyridin-1(2H)-yl)-5,5-dimethyl-5,7-dihydro-6H-pyrrolo[2,3-d]pyrimidin-6-one]
501 nM | 320 nM | 0.1 μm | CC1(C)C(=O)Nc2nc(-c3nn(Cc4ccccc4F)c4ncccc34)nc(N3CC(C(F)(F)F)CC3=O)c21 (stereo not drawn) [Example 25, 2-[1-(2-Fluorobenzyl)-1H-pyrazolo[3,4-b]pyridin-3-yl]-5,5-dimethyl-4-[2-oxo-4-(trifluoromethyl)pyrrolidin-1-yl]-5,7-dihydro-6H-pyrrolo[2,3-d]pyrimidin-6-one]
